Test [1] concerns the target T1, ADAMTS-5 recombinant protein (Homo sapiens, UniProt Q9UNA0).
T1 construct: purchased R&D Systems 2198-AD
T1 sequence (Q9UNA0 262-622 limits assumed): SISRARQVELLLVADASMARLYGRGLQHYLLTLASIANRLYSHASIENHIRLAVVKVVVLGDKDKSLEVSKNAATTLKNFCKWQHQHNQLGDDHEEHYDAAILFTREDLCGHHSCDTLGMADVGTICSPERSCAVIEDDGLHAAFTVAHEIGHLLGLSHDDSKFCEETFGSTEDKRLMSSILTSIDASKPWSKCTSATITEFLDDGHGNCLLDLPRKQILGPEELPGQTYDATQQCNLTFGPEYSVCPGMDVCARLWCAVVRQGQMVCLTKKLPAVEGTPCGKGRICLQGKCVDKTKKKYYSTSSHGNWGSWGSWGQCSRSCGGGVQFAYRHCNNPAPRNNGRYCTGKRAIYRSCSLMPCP
Briefly: In vitro fluorescence (FRET-peptide) enzymatic assay of ADAMTS-5 activity. Type of test: biochemical. Conditions: FRET peptide substrate 8 μM, 10 nM enzyme, 37° C. 3 hours. How it is done:
(§1) A FRET (fluorescence resonance energy transfer) peptide was cleaved by recombinant ADAMTS-4 or ADAMTS-5 proteins into two separate fragments resulting in an increase of fluorescence signal which was quantified. The peptide was 5-FAM-TEGEARGSVILLK (5-TAMRA)K—NH2, customized from ANASPEC. ADAMTS-4 recombinant protein (4307-AD) and ADAMTS-5 recombinant protein (2198-AD) were purchased from R&D Systems.
(§2) An assay buffer containing 50 mM HEPES pH 7.5, 100 mM NaCl, 5 mM CaCl2, 0.1% CHAPS and 5% Glycerol was prepared. A volume of 2.5 μl of compound in the assay buffer was dispensed to a 384-well plate, and 2.5 μl of ADAMTS-4 or ADAMTS-5 protein (final concentration in the reaction was 10 nM) was added. The compounds and proteins were pre-incubated at room temperature for 15 minutes. Then, 5 μl of substrate was added to each well. The final substrate concentrations for ADAMTS-4 and ADAMTS-5 were 15 μM and 8 μM, respectively. The fluorescence signal in each well was determined, after incubation at 37° C. for 3 hours, on a TECAN plate reader (Excitation, 490 nm; Emission, 520 nm).
(§3) The data was inputted into GraphPad Prism, and the IC50 values were calculated using function “log (inhibitor) vs. response-Variable slope (four parameters)”, (See Table 1)

In test [2] the target is T2, ADAMTS-4 recombinant protein (Homo sapiens, UniProt O75173).
T2 construct: purchased R&D Systems 4307-AD
T2 sequence (O75173 213-685 limits assumed): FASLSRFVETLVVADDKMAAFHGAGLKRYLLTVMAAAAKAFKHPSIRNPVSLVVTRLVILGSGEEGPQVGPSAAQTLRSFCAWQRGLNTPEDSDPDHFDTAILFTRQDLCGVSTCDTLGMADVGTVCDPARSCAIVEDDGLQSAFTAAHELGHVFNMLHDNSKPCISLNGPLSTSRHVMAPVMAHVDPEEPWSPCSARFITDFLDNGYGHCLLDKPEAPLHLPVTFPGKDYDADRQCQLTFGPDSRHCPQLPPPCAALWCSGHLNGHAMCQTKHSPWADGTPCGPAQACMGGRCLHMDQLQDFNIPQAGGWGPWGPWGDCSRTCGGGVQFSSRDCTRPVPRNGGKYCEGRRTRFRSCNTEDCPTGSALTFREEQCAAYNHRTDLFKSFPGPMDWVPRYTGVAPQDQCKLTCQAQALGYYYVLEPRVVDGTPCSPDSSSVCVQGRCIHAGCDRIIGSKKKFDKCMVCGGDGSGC
Briefly: In vitro fluorescence (FRET-peptide) enzymatic assay of ADAMTS-4 activity. The test is classed as biochemical. Conditions: FRET peptide substrate 15 μM, 10 nM enzyme, 37° C. 3 hours. How it is done:
as §1, §2, §3

Test [3] has as its target T1, ADAMTS-5 recombinant protein. Briefly: Aggrecan-IGD enzymatic assay for ADAMTS-5 inhibitors (ARGSVIL-peptide ELISA). Type of test: biochemical. Conditions: aggrecan-IGD protein substrate, 37° C. 45 minutes. Here is the method: In this assay, the enzymatic activity of recombinant ADAMTS-5 protein (2198-AD, R&D Systems) was assayed with a protein substrate, the aggrecan IGD protein. The aggrecan IGD protein is a polypeptide connecting human aggrecan globular domains 1 and 2 (T331-G458) expressed in E. coli with a C-terminal His-tag (BIOTEZ, 30411000). The enzymatic product ARGSVIL-peptide was detected using an ELISA kit from BioTEZ (30510111). An assay buffer containing 50 mM HEPES pH 7.5, 100 mM NaCl, 5 mM CaCl2, 0.1% CHAPS and 5% Glycerol was prepared. Recombinant ADAMTS-5 protein was diluted to 0.3 nM in the assay buffer. Ten μL of buffer and 10 μl of compound solution was transferred to each well of a 96-well plate and incubated at room temperature for 15 minutes. Substrate aggrecan-IGD was diluted to 100 nM with the assay buffer and 20 μl was added to each well. The plate was incubated at 37° C. for 45 minutes. After incubation, the newly generated epitope ARGSVIL-peptides were measured using the Aggrecanase Activity ELISA Assay Kit following the manufacturer's instructions. Then, 100 μl of stop solution was added and the absorbance of each well was read at 450 nm, using […] as reference on a TECAN plate reader.
A standard curve of the ELISA assay was generated in GraphPad Prism using Sigmoidal 4PL function and the corresponding peptide concentrations were calculated based on the standard curve. The IC50 values were calculated using function “log (inhibitor) vs. response-Variable slope (four parameters)”. (See Table 2).

For test [4], the system named is mouse femoral head cartilage. Briefly: Mouse cartilage explant assay (IL-1α induced GAG release). The test is classed as cell-based. The settings on record: inhibition of GAG release, IL-1α 1 ng/mL, 72 hours; for inhibition at 2 µM: compound 2 μM, read-out: Inhibiton % at 2 μM; for inhibition at 20 µM: compound 20 μM. Here is the method: In this assay, fresh mouse femoral head cartilage was treated with IL-1a protein (Sigma-Aldrich, 12778) in culture media, which induced the cartilage catabolism. Then, the GAGs attached to the cleaved aggrecan fragments (released in the media) and the GAGs attached to the intact aggrecan were measured by dimethylmethylene blue dye in the Glycosaminoglycans Assay Kit (Chondrex, 6022).
Femoral head cartilage samples were isolated from mice (25 days old, male, C57BL/6, from Charles River Lab) and put into 2.0 mL tubes filled-up with media (DMEM, 10% FBS, 4 mM Glutamine, penicillin-streptomycin, 20 mM HEPES). 200 μl of media without FBS was added to each well of a 48-well plate, and one piece of cartilage was transferred to a well in the plate. Then the media was aspirated, and compounds and IL-1α protein were added to the plate in a total volume of 400 μl of fresh media without FBS. The final concentration of IL-1α was 1 ng/mL. The plate was incubated at 37° C. for 72 hours in a humidified incubator with 5% CO2 supply.
The supernatant was transferred to a 1.5 mL tube and kept at −20° C. Each cartilage sample was transferred to another 1.5 mL tube containing 400 μl of freshly made papain solution. The papain solution contained 125 μg/mL papain (Sigma-Aldrich, P3125), 0.1 M sodium acetate (Sigma-Aldrich. S7899), pH 5.5 and 5 mM EDTA and 5 mM L-cysteine-HCl (Sigma-Aldrich, C7880). The cartilage samples were kept rocking in a 60° C. water bath for 24 hours.
The lysates were vortexed for 10 seconds and spinned at 10,000 rpm for 2 minutes. Both the supernatant and the lysate samples were diluted with PBS and mixed with 100 μL of dye from the Glycosaminoglycans Assay Kit. The optical density from each well was determined with a TECAN plate reader set to a wavelength of 525 nm,
The concentrations of GAGs in the supernatant and lysates were determined based on the standard curve with a dose range of chondroitin sulfate provided in the kit. The percentage of GAG release was calculated as the following: […]
The test compound effect was expressed as the percent of inhibition using the following formula: […]

pIC50: −log10 of the molar value.

As to `CC1c2cc(C(F)(F)F)c(Cl)cc2CN1C(=O)NC[C@@]1(C2CC2)NC(=O)NC1=O` (stereo partly drawn) [Example 8, 5-chloro-N—(((R)-4-cyclopropyl-2,5-dioxoimidazolidin-4-yl)methyl)-1-methyl-6-(trifluoromethyl)isoindoline-2-carboxamide], the pIC50 in test [1] was 7.66; in test [2], 7.48; in test [3], 7.47.

Regarding `[2H]C1([2H])c2cc(Cl)c(C(F)(F)F)cc2C(C)N1C(=O)NC[C@@]1(C2CC2)NC(=O)NC1=O` (stereo partly drawn) [Example 9, 5-chloro-N—(((R)-4-cyclopropyl-2,5-dioxoimidazolidin-4-yl)methyl)-1-methyl-6-(trifluoromethyl)isoindoline-3,3-d2-2-carboxamide], the pIC50 is 7.52 in test [1], 7.28 in test [2] and 7.47 in test [3].

Consider `C[C@@H]1c2cc(C(F)(F)F)c(Cl)cc2CN1C(=O)NC[C@@]1(C2CC2)NC(=O)NC1=O` [Example 8-1, (R)-5-chloro-N—(((R)-4-cyclopropyl-2,5-dioxoimidazolidin-4-yl)methyl)-1-methyl-6-(trifluoromethyl)isoindoline-2-carboxamide], for which the pIC50 is 8.10 in test [1], 7.92 in test [2] and 7.77 in test [3]. Further, the inhibition at 2 µM in test [4] was 61%. Moreover, in test [4], the inhibition at 20 µM is 95%.

As to `O=C1NC(=O)[C@](CNC(=O)N2Cc3cc(Cl)c(Cl)cc3C2)(C2CC2)N1` [Example 1-2, (R)-5,6-dichloro-N-((4-cyclopropyl-2,5-dioxoimidazolidin-4-yl)methyl)isoindoline-2-carboxamide], the figures for the pIC50 in test [1], in test [2] and in test [3] were 7.64, 7.80 and 7.59, respectively. Also, the inhibition at 2 µM in test [4] came to 47%. The inhibition at 20 µM in test [4] was 87%.

On to `[2H]C1([2H])c2cc(Cl)c(Cl)cc2C(C)N1C(=O)NC[C@@]1(C2CC2)NC(=O)NC1=O` (stereo partly drawn) [Example 11, 5,6-dichloro-N—(((R)-4-cyclopropyl-2,5-dioxoimidazolidin-4-yl)methyl)-1-methylisoindoline-3,3-d2-2-carboxamide], for which the pIC50 in test [1] is 7.52; in test [2], 7.04.

Take `CC1c2cc(Cl)c(Cl)cc2CN1C(=O)NC[C@@]1(C2CC2)NC(=O)NC1=O` (stereo partly drawn) [Example 2, 5,6-dichloro-N—(((R)-4-cyclopropyl-2,5-dioxoimidazolidin-4-yl)methyl)-1-methylisoindoline-2-carboxamide]: the pIC50 in test [1] is 7.44; in test [2] it was 7.38; in test [3], 7.36.

Consider `C[C@@H]1c2cc(Cl)c(Cl)cc2CN1C(=O)NC[C@@]1(C2CC2)NC(=O)NC1=O` [Example 2-1, (R)-5,6-dichloro-N—(((R)-4-cyclopropyl-2,5-dioxoimidazolidin-4-yl)methyl)-1-methylisoindoline-2-carboxamide], for which the pIC50 in test [1] was 8.05; in test [2], 7.47; in test [3], 7.77. Also, the inhibition at 2 µM in test [4] is 14%. Besides, the inhibition at 20 µM in test [4] worked out at 86%.

On to `O=C1NC(=O)[C@](CNC(=O)N2Cc3cc(Cl)c(C(F)(F)F)cc3C2)(C2CC2)N1` [Example 3, (R)-5-chloro-N-((4-cyclopropyl-2,5-dioxoimidazolidin-4-yl)methyl)-6-(trifluoromethyl)isoindoline-2-carboxamide], for which the pIC50 in test [1] is 7.40; in test [2], 7.41; in test [3] it was 7.40.

For the compound `O=C1NC(=O)C(CNC(=O)N2Cc3cc(Cl)c(Cl)cc3C2)(C2CC2)N1` (stereo not shown) [Example 1, 5,6-dichloro-N-((4-cyclopropyl-2,5-dioxoimidazolidin-4-yl)methyl)isoindoline-2-carboxamide], the pIC50 is 7.42 in test [1], 7.51 in test [2] and 7.22 in test [3].

For `O=C1NC(=O)C(CNC(=O)N2Cc3ccc(C(F)(F)F)cc3C2)(C2CC2)N1` (stereo not shown) [Example 4, N-((4-cyclopropyl-2,5-dioxoimidazolidin-4-yl)methyl)-5-(trifluoromethyl)isoindoline-2-carboxamide], the pIC50 in test [1] was 7.00; in test [2], 6.55; in test [3], 6.85. Besides, the inhibition at 2 µM in test [4] was determined as 0%. The same compound yielded an inhibition at 20 µM in test [4] of 94%.

Source of the values: patent US20220009909A1, “ADAMTS INHIBITORS, PREPARATION METHODS AND MEDICINAL USES THEREOF” (Eternity Bioscience Inc., priority 2020, published 2022).
